Patent publication US9649282B2, “Diversion- and/or abuse-resistant compositions and methods for making the same” (Invincible Biotechnology, LLC, priority 2010, dated 2017)

Experiment: Abuse resistance through nasal inhalation: aminophylline in blood serum after intranasal administration to mice (HPLC)
Type: in vivo, male mice (CBA C50 Black F1 line)
Conditions: 10 μL of solution, blood from retro-orbital sinus about 3 to 5 minutes after administration, pool of three mice
Method: 10 μL of each experimental solution was administered to a corresponding pool of three mice. About 3 to 5 minutes after administration, blood samples were drawn from the retro-orbital sinuses (sinus retroorbitalis) of the mice, combined and centrifuged for 10 minutes at 3000 rpm. The collected serum was then deproteinized with 0.3 M trichloroacetic acid at a serum to acid ratio of about 0.2 ml to 1.0 ml. To complete the precipitation of proteins, the samples were maintained in a thermostat at 20° C. for about 20 minutes and then filtered through a 0.45 micron acetate cellulose filter. The filtrates were analyzed for aminophylline concentration by injecting 20 μL samples into an HPLC, Schimadzu LC-20AD with photodiode array detector (PDA) and Phenomenex Luna 5μ C18, […] column. Acetonitrile in 0.1M phosphoric acid was used as a Mobile phase with linear gradient of acetonitrile of 1-50% vol., pressure 6.3 Mpa, flow rate 0.5 ml/min, and detector wavelength of about 272 nm.
The chromatograms of serums from Controls 1 and 2 with aminophylline concentration of 4% by weight and 24% by weight are shown in FIGS. 9 and 10, respectively. Similar chromatograms were prepared for all of the samples. The areas of the aminophylline peaks that are proportional to its concentration in the blood taken from the retro-orbital sinus, are presented in Table 6 below: […]

Row | Structure (SMILES) | Aminophylline Concentration in Blood Serum
1 | Cn1c(=O)c2[nH]cnc2n(C)c1=O [Control-2, aminophylline] | 20.09 µg/mL
2 | Cn1c(=O)c2[nH]cnc2n(C)c1=O [Control-1, aminophylline] | 19.91 µg/mL
